Assay results as given in US20040013696A1, “Use of ellagic acid as an anti-pollution cosmetic agent” (priority 2000, published 2004).

Columns and labels:
[1] = test system: human keratinocytes; assay: Covalent binding of 14C-benzo[a]pyrene to cell proteins (alkylation of nucleophiles); format: cell-based
Text: Polycyclic aromatic hydrocarbons (PAHs), adsorbed onto the surface of particles and dust conveyed by the urban atmosphere, can penetrate into skin tissue and be biotransformed therein. Their metabolism in the liver, which is well-described in the literature, leads to the formation of monohydroxylated metabolites (detoxification pathway), epoxides and diol epoxides (toxifying pathway). It follows the same profile in the skin. […] After consequent or repeated exposures to the pollutant, its potential toxicity can lead to a contact hypersensitivity in the case of the alkylation of proteins. […] The cells are inoculated on D-3 into 6-well dishes at a rate of 53 000 cells/cm^2. The incubations are performed at 37° C. in humid atmosphere enriched with 5% CO2. […] The covalent binding to cell proteins is measured according to the protocol of Hoellinger et al., adapted to a filtration method in 96-well microplates (H. Hoellinger, M. Sonnier, J. Gray, T. A. Connors, J. Pichon and N. H. Nam. In vitro covalent binding of […], bioresmethrin and their common alcohol to hepatic proteins. Toxicol. Appl. Pharmacol., 1985, 77, 11-18). […] The aim of this series of washes is to remove from the proteins any radioactivity not covalently bound. […] Samples are then taken to assay the proteins and count the radioactivity of the solution. The results are expressed as nmol of B[a]P bound per mg of proteins.

[2] = test system: human keratinocytes
Experimental: The study was performed on a monolayer culture of human keratinocytes obtained from plastic surgeries. The cells are inoculated on D-3 into 96-well dishes at a rate of 25 000 cells/cm^2 in 100 μl of culture medium. The incubations are performed at 37° C. in a humid atmosphere enriched with 5% CO2.
Initially, the cells are treated for 24 hours with increasing concentrations (0, 10, 25, 50, 75, 100, 150 and 200 μM) of cadmium chloride (CdCl2), so as to determine its cytotoxicity. […]
At the end of the treatment, the cell viability is determined by means of the neutral red incorporation test (POS 55/006) and reading at 550 nm (ref: Borenfreund, E and Puerner, J. A. (1984) A simple quantitative procedure using monolayer cultures for cytotoxicity assays. Tissue Culture Methods; 9: 7-9).
The cells are rinsed with PBS buffer in order to remove the treatment solutions, and are then incubated for three hours at 37° C. in a neutral red solution (100 μl) prepared to a concentration of 0.5 mg/ml in the culture medium. […] The amount extracted is determined by reading the optical density on a spectrophotometer at 550 nm.
The concentration of CdCl2 that induces a 50% drop in the cell viability (IC-50) is then calculated.

[3] = test system: human keratinocytes; assay: Protection against the effects of ozone: ozone-induced lipid hydroperoxides (DCFH-DA fluorescence); format: cell-based; conditions: ellagic acid 200 μM; for % fluorescence observed ± SEM, relative to the unprotected controls: ozone 10 ppm
Experimental: Ozone has the capacity to oxidize cell constituents, especially generating carbonylated proteins and lipid hydroperoxides. Quantification of the lipid hydroperoxides is one means of measuring the oxidative stress induced by an exposure of skin tissue to this pollutant. A decrease in their content indicates a protective effect of ellagic acid. […] The incubations are performed at 37° C., 5% CO2 in humid atmosphere. […] Hydroperoxides constitute an intracellular stress marker. They are detected and quantified by means of a fluorescence technique (Lebel C. P., Ischiropoulos H. and Bondy S. C. […] Chem. Res. Toxicol.: 5: 227-231). […] The cells, pretreated for 24 hours with ellagic acid, are then washed with phosphate-buffered saline (PBS) and placed in contact for 30 minutes with a solution of DCFH-DA (500 μl/well), prepared in the culture medium to a concentration of 320 μM. […] They are then exposed to ozone (10 ppm), in a humid atmosphere, in an incubator set at 37° C. The formation of fluorescent DCF (excitation screen at 485 nm and emission screen at 530 nm) resulting from the production of hydroperoxides is measured after different times of exposure to ozone: 0, 5, 10 and 20 minutes. […] For each time, the fluorescence values of the unprotected controls are set at 100%. The resulting values in the presence of ellagic acid are then expressed relative to this control value. […] This protection is at a maximum from 5 minutes of exposure onward (71.8% drop in induced stress). It is still significant after 20 minutes of exposure (47.7% drop in induced stress).

SMILES: c1ccc2c(c1)cc1ccc3cccc4ccc2c1c34 [B (a) P, benzo(a)pyrene, reference compound]
- covalent binding to keratinocyte proteins ([1]; benzo(a)pyrene alone at 20 μM): 0.28 nmol of B(a)P per mg of protein

SMILES: [Cl][Cd][Cl] [cadmium chloride, reference compound]
- IC50 ([2]; read-out: IC-50 of cadmium chloride, Mean ± SEM, without ellagic acid, 24 hours, n=4): 39 µM

SMILES: O=c1oc2c(O)c(O)cc3c(=O)oc4c(O)c(O)cc1c4c23 [ellagic acid, 2,3,7,8-tetrahydroxy-(1)benzopyrano(5,4,3-cde)(1)benzopyran-5,10-dione]
- drop in induced stress ([3]; 5 minutes of exposure to ozone): 71.8%
- drop in induced stress ([3]; 20 minutes of exposure to ozone): 47.7%
- % fluorescence observed ± SEM, relative to the unprotected controls ([3]; 5 min. of contact): 28.2 ± 3.3%
- % fluorescence observed ± SEM, relative to the unprotected controls ([3]; 10 min. of contact): 36.3 ± 3.4%
- % fluorescence observed ± SEM, relative to the unprotected controls ([3]; 20 min. of contact): 52.3 ± 4.4%
- maximum dose of ellagic acid noncytotoxic to the cells ([2]; human, 24 h): 200 µM
- reduction in the reactivity of B(a)P by a factor ([1]; in the presence of ellagic acid 100 μM): 3.1
